Experimental findings from PMC9728921, “Characterization of a KDM5 small molecule inhibitor with antiviral activity against hepatitis B virus” (PLOS ONE, 2022) are described below.

Series [1] concerns PHH or a panel of human cells. Put plainly: Cytotoxicity in PHH or in a panel of human cells (summary). Format: cell-based. The note with it: concentrations up to 57 μM.
A short description of a further series: Cytotoxicity CC50, Huh-7. The series is classed as cell-based. The note with it: human, Huh-7 cells (hepatoma cell line). The source says:
(§1) a Values represent the geometric mean and multiplicative standard deviation of 3 – 5 primary human hepatocyte (PHH) donors or 5 – 10 independent experiments.
(§2) b MT-4: human T-lymphoblastoid cell line; PBMC: peripheral blood mononuclear cell; Gal-HepG2: galactose adapted human hepatoblastoma cell line; Huh-7: human hepatoma cell line; Gal-PC3: galactose adapted human prostate carcinoma cell line; MRC-5: Medical Research Council 5 embryonal lung fibroblast; NRVM: neonatal rat ventricular cardiomyocytes

Another series in a line: Cytotoxicity CC50, MRC-5. Format: cell-based. The note with it: human, MRC-5 cells (embryonal lung fibroblasts).
Excerpt: as §1, §2

Series [2] in a line: Cytotoxicity CC50, Gal-PC3. The series is classed as cell-based. The settings on record: human.
Excerpt: as §1, §2

The nature of a further series: Cytotoxicity CC50, MT-4. The series is classed as cell-based. The note with it: human, MT-4 cells (T-lymphoblastoid cell line).
Excerpt: as §1, §2

Another series in a line: Cytotoxicity CC50, NRVM. The series is classed as cell-based. The settings on record: rat, NRVM (neonatal rat ventricular cardiomyocytes).
Excerpt: as §1, §2

The nature of series [3]: Cytotoxicity CC50, Gal-HepG2. The settings on record: human, Gal-HepG2 cells (galactose adapted hepatoblastoma cell line). Format: cell-based.
Excerpt: as §1, §2

The nature of a further series: Cytotoxicity CC50, PHH. Format: cell-based. The note with it: human, primary human hepatocytes (PHH).
Excerpt: as §1, §2

For series [4], the system named is HBV. Put plainly: HBV antiviral activity in HBV-infected PHH (overall; HBsAg and HBeAg over time). Format: cell-based, Hepatitis B virus. On the procedure: Approximately 24 hours after plating, PHH were infected with HepAD38-derived GTD virus at 500 viral genome equivalents per cell in maintenance medium supplemented with 4% PEG 8000 (Promega, Madison, WI; V3011). For patient sera infections, PHH were infected with 6 μl of patient sera in maintenance medium supplemented with 4% PEG 8000. Infections were allowed to proceed for 20–24 hours before removing remaining extracellular virions by washing with maintenance medium three times.
For the pulse dose regimen, medium containing compound was removed after two hours incubation and replaced with fresh maintenance medium every three to four days. Cells in the pulse dose experiment received only one dose of compound (Day = 0).
(§3) Hepatitis B e antigen (HBeAg) and Hepatitis B surface antigen (HBsAg) were detected in culture media at the indicated time by ELISA or electrochemiluminescence assay (MSD). The HBeAg and HBsAg ELISAs were performed using the HBeAg ELISA kit (International Immuno-Diagnostics, Foster City, CA) and HBsAg ETI-MAK-2 plus kit (DiaSorin, Stillwater, MN), respectively according to the manufacturer’s instructions. Concentrations were calculated by interpolation from standard curves with purified HBeAg and HBsAg. The MSD assay was performed according to the manufacturer’s instructions (Meso Scale Diagnostics, Rockville, MD). Briefly, cultured supernatants were inactivated with 0.5% Triton X-100 (30 minutes at 37°C) and then transferred into plates pre-spotted with both an anti-HBeAg antibody (Genway Bio, San Diego, CA) and a custom anti-HBsAg antibody. The plates were then incubated for two hours at room temperature with gentle shaking, followed by a wash step in PBS with 0.5% Tween. MSD sulfate tags anti-A and anti-B (1 μg/mL each) were then added to the wells and the plates incubated for a further two hours at room temperature with gentle shaking, followed by another wash step in PBS with 0.5% Tween. A 2X solution of MSD T Buffer Read was then added and the plate was read on a Sector Imager 6000 plate scanner.

In series [5] the test system is HBV. The series is described as follows: Intracellular HBV RNA (vRNA) by qRT-PCR in HBV-infected PHH. Format: cell-based. The note with it: Hepatitis B virus. On the procedure:
(§4) Approximately 24 hours after plating, PHH were infected with HepAD38-derived GTD virus at 500 viral genome equivalents per cell in maintenance medium supplemented with 4% PEG 8000 (Promega, Madison, WI; V3011). For patient sera infections, PHH were infected with 6 μl of patient sera in maintenance medium supplemented with 4% PEG 8000. Infections were allowed to proceed for 20–24 hours before removing remaining extracellular virions by washing with maintenance medium three times. […]
Intracellular HBV viral RNA was isolated from PHH using the RNeasy 96 kit (Qiagen, 74182) following the manufacturer’s recommended protocol. Briefly, 125 μl of Qiagen RLT lysis buffer was added to PHH. The PHH lysate was then thoroughly mixed with 125 μl of 70% ethanol, transferred into a RNeasy 96 well plate, and placed onto a vacuum manifold (Qiagen; 19504). The plate was washed using RW1 and RPE buffers, followed by centrifugation (Sigma-Aldrich, Model 4-16S) at 6000 rpm for 2 minutes. The RNA was then eluted twice with 60 μl of nuclease free water for a total of 120 μl RNA.
After elution, DNase digestion by Turbo DNase (Thermo Fisher Scientific; AM2239) was performed to remove any contaminating DNA. After 30 minutes of DNase treatment at 37°C, Turbo DNase was inactivated by adding 15 mM of EDTA and heating the reaction to 75°C for 10 minutes in a thermo cycler (Thermo Fisher Scientific; Veriti 96 Well Thermal Cycler).
GAPDH or RPLP0 mRNA expression was used to normalize target gene expression. Levels of HBV RNA for all donors were calculated as fold change relative to no drug treated sample using the 2-ΔΔCt method.
(§5) Antiviral activity of test compounds was determined from vRNA, vDNA, HBeAg, and HBsAg data by comparing compound-treated PHH to DMSO (vehicle)-treated PHH to generate a percent of DMSO control value (% DMSO control). The % DMSO control was calculated by the following equation: %DMSOControl=100xXc/XD where Xc is the signal from the compound-treated PHH and XD is the signal from the DMSO-treated PHH. The % DMSO control for vRNA, vDNA, HBeAg, HBsAg, GAPDH, or RPLP0 was plotted versus the log of each compound concentration in GraphPad Prism (version 6; Graphpad Software, LaJolla, CA) to generate dose-response curves. […] Dose-response curves were fitted using the nonlinear regression equation “log(agonist) versus response–variable slope (four parameters)” in GraphPad Prism to determine EC50 values.
Background: Real-time PCR tracks product formation cycle by cycle.

Series [6] concerns HBV. Put plainly: Secreted HBeAg by immunoassay in HBV-infected PHH. The settings on record: Hepatitis B virus. Format: cell-based. The procedure: as §4, §3, §5
Setting [7] is: read-out: vRNA EC50, PHH donor BCD, HBV GTD, treated every three to four days for 14 days.
Setting [8] is: read-out: vRNA EC50, PHH donor Hu276, HBV GTD, treated every three to four days for 14 days.
The mark [9] stands for this setting: read-out: vRNA EC50, PHH donor Hu349, HBV GTD, treated every three to four days for 14 days.
[10] abbreviates: read-out: vRNA EC50, PHH donor Hu4167, HBV GTD, treated every three to four days for 14 days.
Where [11] appears, read: read-out: vRNA EC50, PHH donor Hu7272, HBV GTD, treated every three to four days for 14 days.
Where [12] appears, read: read-out: vRNA EC50, PHH donor Hu8130, HBV GTD, treated every three to four days for 14 days.
Where [13] appears, read: read-out: vRNA EC50, PHH donor Hu8181, HBV GTD, treated every three to four days for 14 days.
Where [14] appears, read: read-out: HBeAg EC50, PHH donor BCD, HBV GTD, treated every three to four days for 14 days.
[15] abbreviates: read-out: HBeAg EC50, PHH donor Hu276, HBV GTD, treated every three to four days for 14 days.
[16] abbreviates: read-out: HBeAg EC50, PHH donor Hu349, HBV GTD, treated every three to four days for 14 days.
The mark [17] stands for this setting: read-out: HBeAg EC50, PHH donor Hu4167, HBV GTD, treated every three to four days for 14 days.
The mark [18] stands for this setting: read-out: HBeAg EC50, PHH donor Hu7272, HBV GTD, treated every three to four days for 14 days.
The mark [19] stands for this setting: read-out: HBeAg EC50, PHH donor Hu8130, HBV GTD, treated every three to four days for 14 days.
The mark [20] stands for this setting: read-out: HBeAg EC50, PHH donor Hu8181, HBV GTD, treated every three to four days for 14 days.
The mark [21] stands for this setting: 10 μM every three to four days, three PHH donors.

In general, CC50 refers to the concentration that lowers cell viability or growth by half. A lower CC50 goes with harm at low concentration. Turning to `CCN(CCN(C)C)C(=O)CNCc1cc(C(=O)O)ccn1` [GS-080], the measurable cytotoxicity result in series [1] is listed as “neither GS-5801 nor GS-080 had measurable cytotoxicity”. Moreover, the half-maximal cytotoxic concentration (CC50) was greater than 44 µM in the series “Cytotoxicity CC50, Huh-7”; greater than 44 µM in the series “Cytotoxicity CC50, MRC-5”; greater than 44 µM in series [2]; greater than 57 µM in “Cytotoxicity CC50, MT-4”; greater than 44 µM in “Cytotoxicity CC50, NRVM”; greater than 44 µM in series [3]. In “Cytotoxicity CC50, PHH”, this compound showed a CC50 greater than 50 µM.
The EC50 is the concentration giving half of the maximal effect. With `CCOC(=O)c1cc(CNCC(=O)N(CC)CCN(C)C)ncc1Br` [GS-420], the “HBV antiviral activity in PHH” value with HBV [4] (concentrations up to 10 μM) is reported as “did not exhibit HBV antiviral activity”. The 50% effective concentration (EC50) in the series with HBV [5] (setting [7]), in the series on HBV [5] (setting [8]), in the series with HBV [5] (setting [9]), with HBV [5] (setting [10]), in the series on HBV [5] (setting [11]) and in the series on HBV [5] (setting [12]) was greater than 10 µM throughout. Moreover, the EC50 in the series with HBV [5] (setting [13]), with HBV [6] (setting [14]), in the series on HBV [6] (setting [15]), in the series with HBV [6] (setting [16]), in the series on HBV [6] (setting [17]) and with HBV [6] (setting [18]) was greater than 10 µM each time. Moreover, the concentration giving a half-maximal response (EC50) in the series on HBV [6] (setting [19]) and in the series with HBV [6] (setting [20]) was greater than 10 µM in each case.
On to `CCOC(=O)c1ccnc(CNCC(=O)N(CC)CCN(C)C)c1` [GS-5801], for which, in series [1], the measurable cytotoxicity entry is listed as “neither GS-5801 nor GS-080 had measurable cytotoxicity”. Also, the CC50 in the series “Cytotoxicity CC50, Huh-7” was greater than 44 µM; in the series “Cytotoxicity CC50, MRC-5”, greater than 44 µM; in series [2], greater than 44 µM; in the series “Cytotoxicity CC50, MT-4”, 51 ± 1.2 µM; in the series “Cytotoxicity CC50, NRVM”, greater than 44 µM; in series [3] it was greater than 44 µM. The same compound came in with a 50% cytotoxic concentration (CC50) in the series “Cytotoxicity CC50, PHH” greater than 50 µM. The “time course throughout which antiviral activity was maintained” value in the series with HBV [4] (setting [21]) lay in the range of 30 to 32 days. For the same compound, in the series with HBV [4] (setting [21]), the “time to maximal HBsAg and HBeAg inhibition after initiation of treatment” value was in the range of 12 to 17 days. The “time inhibition of HBeAg and HBsAg was sustained following a pulse dose” value in the series on HBV [4] (single two-hour pulse dose, 10 μM, donor) was “up to 20 days”. For the same compound, the half-maximal effective concentration (EC50) was 0.051 to 2.7 µM in the series with HBV [5] (336 h, read-out: EC50 range across genotypes, intracellular HBV RNA, range across genotypes, 14 days of dosing); 0.034 to 1.1 µM in the series on HBV [5] (336 h, read-out: EC50 range for intracellular RNA, range over the seven PHH donors tested, HBV GTD, Day 14); 0.034 µM in the series with HBV [5] (setting [7]); 0.042 µM with HBV [5] (setting [8]); 0.43 µM in the series with HBV [5] (setting [9]); 0.047 µM in the series on HBV [5] (setting [10]). Further, the EC50 in the series on HBV [5] (setting [11]) turned out to be 0.93 µM; with HBV [5] (setting [12]) it was 1.1 µM; in the series on HBV [5] (setting [13]) it was 0.16 µM; in the series on HBV [5] (read-out: vRNA EC50, PHH infected with HBV GTA, treated every three to four days for 13 days) it was 1.8 µM; in the series with HBV [5] (read-out: vRNA EC50, PHH infected with HBV GTC, treated every three to four days for 13 days) it was 0.051 µM; in the series on HBV [5] (read-out: vRNA EC50, PHH infected with HBV GTD, treated every three to four days for 13 days (Table 3)), 0.43 µM. Moreover, the half-maximal effective concentration (EC50) in the series on HBV [5] (read-out: vRNA EC50, PHH infected with HBV GTE, treated every three to four days for 13 days) is 2.7 µM; with HBV [6] (336 h, read-out: EC50 range across genotypes, secreted HBeAg, range across genotypes, 14 days of dosing) it was 0.3 to 1.4 µM; in the series on HBV [6] (336 h, read-out: EC50 range for secreted HBeAg, range over the seven PHH donors tested, HBV GTD, Day 14), 0.014 to 1.1 µM; in the series on HBV [6] (setting [14]), 0.014 µM; with HBV [6] (setting [15]), 0.1 µM; in the series on HBV [6] (setting [16]) it was 0.38 µM. Besides, the EC50 with HBV [6] (setting [17]) is 0.15 µM; in the series with HBV [6] (setting [18]) it was 0.61 µM; in the series on HBV [6] (setting [19]) it was 1.1 µM; with HBV [6] (setting [20]) it was 0.11 µM; in the series on HBV [6] (read-out: HBeAg EC50, PHH infected with HBV GTA, treated every three to four days for 13 days), 1.1 µM; in the series on HBV [6] (read-out: HBeAg EC50, PHH infected with HBV GTD, treated every three to four days for 13 days (Table 3)) it was 0.3 µM. The half-maximal effective concentration (EC50) in the series with HBV [6] (read-out: HBeAg EC50, PHH infected with HBV GTE, treated every three to four days for 13 days) was found to be 1.4 µM.
